Measured values reported in the NIST ThermoML archive (doi:10.1021/je400463n).
Numbers after ± are expanded uncertainties.

Test: mn = molality of the nth substance listed, in mol/kg
Conditions: 100 kPa, Liquid, Pycnometric method

CCCCCCCCCCCC[N+](C)(C)C.[Br-] [dodecyltrimethylammonium bromide] + O
mass density [kg/m3]
Conditions	293.15 K	298.15 K	303.15 K	308.15 K	313.15 K	318.15 K
m1 = 0.00608	998.345 ± 0.23	997.176 ± 0.25	995.77 ± 0.26	994.144 ± 0.27	992.319 ± 0.28	990.306 ± 0.29
m1 = 0.00707	998.368 ± 0.23	997.197 ± 0.25	995.79 ± 0.26	994.162 ± 0.27	992.336 ± 0.28	990.321 ± 0.29
m1 = 0.00796	998.388 ± 0.23	997.216 ± 0.25	995.807 ± 0.26	994.178 ± 0.27	992.35 ± 0.28	990.334 ± 0.29
m1 = 0.00897	998.411 ± 0.23	997.237 ± 0.25	995.827 ± 0.26	994.196 ± 0.27	992.367 ± 0.28	990.349 ± 0.29
m1 = 0.00999	998.434 ± 0.23	997.259 ± 0.25	995.847 ± 0.26	994.214 ± 0.27	992.383 ± 0.28	990.364 ± 0.29
m1 = 0.01096	998.456 ± 0.23	997.28 ± 0.25	995.866 ± 0.26	994.232 ± 0.27	992.399 ± 0.28	990.379 ± 0.29
m1 = 0.01199	998.48 ± 0.23	997.302 ± 0.25	995.886 ± 0.26	994.25 ± 0.27	992.416 ± 0.28	990.394 ± 0.29
m1 = 0.01299	998.503 ± 0.23	997.324 ± 0.25	995.905 ± 0.26	994.268 ± 0.27	992.432 ± 0.28	990.409 ± 0.29
m1 = 0.01398	998.524 ± 0.23	997.343 ± 0.25	995.923 ± 0.26	994.286 ± 0.27	992.448 ± 0.28	990.424 ± 0.29
m1 = 0.01503	998.543 ± 0.23	997.363 ± 0.25	995.942 ± 0.26	994.304 ± 0.27	992.466 ± 0.28	990.44 ± 0.29
m1 = 0.01596	998.556 ± 0.23	997.376 ± 0.25	995.956 ± 0.26	994.32 ± 0.27	992.48 ± 0.28	990.454 ± 0.29
m1 = 0.01802	998.592 ± 0.23	997.408 ± 0.25	995.986 ± 0.26	994.345 ± 0.27	992.506 ± 0.28	990.48 ± 0.29
m1 = 0.02001	998.622 ± 0.23	997.435 ± 0.25	996.013 ± 0.26	994.37 ± 0.27	992.532 ± 0.28	990.503 ± 0.29
m1 = 0.02494	998.695 ± 0.23	997.505 ± 0.25	996.077 ± 0.26	994.432 ± 0.27	992.587 ± 0.28	990.558 ± 0.29
m1 = 0.02994	998.775 ± 0.23	997.58 ± 0.25	996.147 ± 0.26	994.498 ± 0.27	992.647 ± 0.28	990.616 ± 0.29
m1 = 0.03501	998.85 ± 0.23	997.647 ± 0.25	996.212 ± 0.26	994.557 ± 0.27	992.706 ± 0.28	990.671 ± 0.29
m1 = 0.03995	998.918 ± 0.23	997.712 ± 0.25	996.271 ± 0.26	994.615 ± 0.27	992.76 ± 0.28	990.721 ± 0.29
m1 = 0.04505	998.991 ± 0.23	997.78 ± 0.25	996.336 ± 0.26	994.675 ± 0.27	992.817 ± 0.28	990.774 ± 0.29
m1 = 0.04973	999.061 ± 0.23	997.845 ± 0.25	996.396 ± 0.26	994.733 ± 0.27	992.871 ± 0.28	990.824 ± 0.29
m1 = 0.05498	999.145 ± 0.23	997.923 ± 0.25	996.47 ± 0.26	994.801 ± 0.27	992.935 ± 0.28	990.883 ± 0.29
m1 = 0.06001	999.217 ± 0.23	997.992 ± 0.25	996.535 ± 0.26	994.86 ± 0.27	992.993 ± 0.28	990.938 ± 0.29

CCCCCCCCCCCC[N+](C)(C)CCO.[Br-] [dodecyl(2-hydroxyethyl)dimethylammonium bromide] + O
mass density [kg/m3]
Conditions	293.15 K	298.15 K	303.15 K	308.15 K	313.15 K	318.15 K
m1 = 0.00798	998.5 ± 0.23	997.328 ± 0.25	995.92 ± 0.26	994.291 ± 0.27	992.462 ± 0.28	990.446 ± 0.29
m1 = 0.009	998.537 ± 0.23	997.364 ± 0.25	995.954 ± 0.26	994.324 ± 0.27	992.494 ± 0.28	990.476 ± 0.29
m1 = 0.01003	998.574 ± 0.23	997.4 ± 0.25	995.989 ± 0.26	994.356 ± 0.27	992.525 ± 0.28	990.506 ± 0.29
m1 = 0.01099	998.61 ± 0.23	997.434 ± 0.25	996.02 ± 0.26	994.387 ± 0.27	992.554 ± 0.28	990.534 ± 0.29
m1 = 0.01195	998.646 ± 0.23	997.468 ± 0.25	996.053 ± 0.26	994.418 ± 0.27	992.584 ± 0.28	990.562 ± 0.29
m1 = 0.013	998.684 ± 0.23	997.503 ± 0.25	996.087 ± 0.26	994.451 ± 0.27	992.616 ± 0.28	990.593 ± 0.29
m1 = 0.01395	998.716 ± 0.23	997.536 ± 0.25	996.117 ± 0.26	994.481 ± 0.27	992.644 ± 0.28	990.621 ± 0.29
m1 = 0.01498	998.747 ± 0.23	997.566 ± 0.25	996.147 ± 0.26	994.511 ± 0.27	992.676 ± 0.28	990.65 ± 0.29
m1 = 0.01595	998.774 ± 0.23	997.591 ± 0.25	996.174 ± 0.26	994.537 ± 0.27	992.701 ± 0.28	990.679 ± 0.29
m1 = 0.01793	998.831 ± 0.23	997.647 ± 0.25	996.226 ± 0.26	994.588 ± 0.27	992.75 ± 0.28	990.727 ± 0.29
m1 = 0.01991	998.886 ± 0.23	997.7 ± 0.25	996.278 ± 0.26	994.637 ± 0.27	992.8 ± 0.28	990.776 ± 0.29
m1 = 0.02489	999.025 ± 0.23	997.835 ± 0.25	996.408 ± 0.26	994.766 ± 0.27	992.92 ± 0.28	990.893 ± 0.29
m1 = 0.02994	999.159 ± 0.23	997.963 ± 0.25	996.535 ± 0.26	994.888 ± 0.27	993.043 ± 0.28	991.013 ± 0.29
m1 = 0.03493	999.299 ± 0.23	998.101 ± 0.25	996.667 ± 0.26	995.018 ± 0.27	993.17 ± 0.28	991.136 ± 0.29
m1 = 0.0399	999.439 ± 0.23	998.235 ± 0.25	996.795 ± 0.26	995.142 ± 0.27	993.291 ± 0.28	991.254 ± 0.29
m1 = 0.04493	999.582 ± 0.23	998.372 ± 0.25	996.93 ± 0.26	995.274 ± 0.27	993.419 ± 0.28	991.378 ± 0.29
m1 = 0.04982	999.714 ± 0.23	998.5 ± 0.25	997.055 ± 0.26	995.395 ± 0.27	993.537 ± 0.28	991.49 ± 0.29
m1 = 0.05488	999.856 ± 0.23	998.637 ± 0.25	997.186 ± 0.26	995.52 ± 0.27	993.66 ± 0.28	991.613 ± 0.29
